Data on one compound can be found in patent US12440475B2, “Hodgkin lymphoma therapy” (priority 2016, dated 2025).

The subject of one data set is L428s. Description: Clonogenic survival in methylcellulose, L428s. The format is cell-based, human. As to conditions: very low doses (0.1 and 0.5 μmol). On the procedure:
In all examples, the human Hodgkin lymphoma-derived cell lines L428, L428-c, KMH2, L591, L540, L1236, HDLM2 and SUP-HD were obtained from Dr Steffen Junker (Aarhus University Denmark). All cell lines were cultured in Gibco RPMI 1640 medium supplemented with Glutamax, 10% FBS and antibiotics at 37° C. […] The immunophenotype, P53 status and MSI characterization of the Hodgkin lymphoma cell lines was determined using anti-CD30, CD15, CD20 and CD14 antibodies.
This test was performed on four Hodgkin lymphoma cell lines (L428, L428s, KMH2 and L540). Each was cultured with EDO-S101 at doses of 0, 0.1, 0.5, 1, 10 and 20 μmol in DMSO. The cell lines were cultured in methylcellulose (Stem cell Technologies) at a concentration of 10^5/ml at 37° C. and 5% CO2. The surviving fraction was determined by measuring the viability of colonies generated before and after exposure. Only colonies with more than 50 cells were counted. Each data point represents the average and SD from three independent experiments performed in triplicate.

The nature of data set [1]: Weight of xenografted NSG mice after EDO-S101. The format is in vivo. The method, then:
Two independent experiments were performed to investigate the dose-effect of EDO-S101 in NSG mice eight weeks after xenografting with L428 cells as in Example 8. The aim of the protocol shown in FIG. 8B was to evaluate the effect of sequential treatment with a moderate dose of 60 mg/kg given at an interval of three weeks.
This weight loss was also observed in mice treated with the vehicle. In contrast, the weight of the control mice receiving only freshly prepared phosphate buffered saline (PBS) buffered to 7.3-7.4 increased up to 11 weeks and then started to decrease.
The toxicity of the dose of 80 mg/kg compared to 60 mg/kg was investigated, as compared to the control groups vehicle and PBS.

For another data set, the system named is L1236. Put plainly: Combination with Brentuximab Vedotin, % survival, L1236. The format is cell-based, human. As to conditions: EDO-S101 1.56 μM (sub-IC50) with Brentuximab Vedotin 3.12 μg/ml. On the procedure:
1.56 μM of EDO-S101 was administered to two Hodgkin lymphoma cell lines, the bendamustine naïve cell line L1236 and the bendamustine resistant cell line R100. In a second experiment, Brentuximab Vedotin was administered at a concentration of 3.12 μg/ml to the L1236 cell line and at a concentration of 0.39 μg/ml to the R100 cell line. Finally, in a third experiment EDO-S101 and Brentuximab Vedotin were administered in combination to each of the two cell lines at the same concentrations that they were administered in the monotherapy experiments.

The next data set deals with L428 cells. Description: Cytogenetic analysis of cells from xenografted mice. The format is in vivo, NSG mice. As to conditions: different doses, including a single dose of 60 mg/kg. On the procedure: Separated cells were cultured in the presence of RPMI 1640 supplemented with 10% Fetal Calf Serum (FCS) and antibiotics, colcemid (0.1 μg/ml) added 2 h before harvesting, and the slides with metaphase chromosomes prepared following the standard methanol/acetic acid (3/1, v/v) procedure.
Four new cell lines were generated after one month of in vitro culture following 24 hour of exposure to EDO-S101. Fluorescence in situ hybridysation (FISH) was performed using a combination of standard procedures from the recommended protocols for chromosomal analysis, following telomere and centromere staining, using peptide nucleic acid (PNA) probes in order to detect unstable chromosomal aberrations and to delimit the chromosome territory. M-FISH was performed using multi-FISH probes (Metasystems GmbH, Altlussheim, Germany), according to the manufacturer's recommendations on the same slide. Images of hybridized metaphases were captured using a charge coupled device camera (Zeiss, Thornwood, NY) coupled to a Zeiss Axioplan microscope and processed using ISIS software (Metasystems).
The ocular tumour masses were harvested, as well as cells which infiltrated the liver. Five new cell lines were established from ocular tumours and the livers of both control mice (PBS or vehicle). […]

In data set [2] the test system is Hodgkin lymphoma cell lines. Put plainly: Apoptosis by annexin V-FITC and Hoechst double staining, 7 cell lines. The format is cell-based, human. The following applies: 5 μM; 24 h and 48 h; all cells. The method, then: (§1) This assay was performed on 7 cell lines (HDLM2 was excluded due to the low number of available cells) at 24 h and 48 h following EDO-S101 treatment (5 μM, DMSO). Control cells were cultured in the same final concentration of DMSO. Only viable cells (using Hoechst staining) were focused on, and all necrotic cells were excluded. Apoptosis was determined using annexin V-FITC and Hoechst (33342) double staining according to the manufacturer's instructions (BD Biosciences). Cell-cycle fractions were determined by Hoechst nuclear staining. Briefly, cells were harvested, washed in PBS, incubated with annexin V-FITC and Hoechst solution for 30 minutes at room temperature. Data were collected using a FACSCalibur flow cytometer (BD Biosciences) and analyzed with FlowJo Version 7.5.5 obtainable from FlowJo, LLC. Results represent the mean value of 3 independent experiments.

A further data set has as its system L540. Put plainly: Apoptosis by annexin V-FITC and Hoechst double staining, L540. The following applies: 5 μM, 24 h and 48 h. The format is cell-based, human. The method, then:
as §1

Take `Cn1c(CCCCCCC(=O)NO)nc2cc(N(CCCl)CCCl)ccc21` [EDO-S101]: in the data set with L428s, the “clones observed (clonogenic survival)” value is listed as “only macrophagic clones being observed”. Besides, in data set [1] (single dose 60 mg/kg or 80 mg/kg), the “weight loss, 60 mg/kg versus 80 mg/kg” value is “no significant difference”. Besides, the “weight of the mice or the different organs” value in data set [1] (treated versus untreated mice) is on record as “No significant difference”. For the same compound, in data set [1] (two doses of 60 mg/kg three weeks apart), the weight of mice entry is on record as “weight loss following each administration which was regained after several weeks”. Also, the “cell death in combination with Brentuximab Vedotin” value in the data set with L1236 was “synergistic”. For the same compound, the “metaphases and cell lines from cells of treated mice” value in the data set with L428 cells is recorded as “not possible to obtain either metaphases from direct culture or establish cell lines”. The sensitivity for apoptosis result in data set [2] is on record as “high sensitivity”; in the data set on L540, “higher sensitivity”.
